In patent US20180280480A1, “COMPOSITIONS AND PEPTIDES HAVING DUAL GLP-1R AND GLP-2R AGONIST ACTIVITY” (priority 2014, published 2018):
Numbered stars: 1 amine (or outer) side, 2 acyl side, 3 side chain; on linkers, the order of the positions; unused ones are H or OH. Side chains are listed from the residue outwards. Ends that are not written are not given here. * marks the point of attachment. γGlu = O=C(O)[C@H](CCC(=O)[*:2])N[*:1]; Palmitoyl = CCCCCCCCCCCCCCCC(=O)*

T1: human GLP-2 receptor (human, UniProt O95838 1-553, limits assumed)
T1 sequence (looked up): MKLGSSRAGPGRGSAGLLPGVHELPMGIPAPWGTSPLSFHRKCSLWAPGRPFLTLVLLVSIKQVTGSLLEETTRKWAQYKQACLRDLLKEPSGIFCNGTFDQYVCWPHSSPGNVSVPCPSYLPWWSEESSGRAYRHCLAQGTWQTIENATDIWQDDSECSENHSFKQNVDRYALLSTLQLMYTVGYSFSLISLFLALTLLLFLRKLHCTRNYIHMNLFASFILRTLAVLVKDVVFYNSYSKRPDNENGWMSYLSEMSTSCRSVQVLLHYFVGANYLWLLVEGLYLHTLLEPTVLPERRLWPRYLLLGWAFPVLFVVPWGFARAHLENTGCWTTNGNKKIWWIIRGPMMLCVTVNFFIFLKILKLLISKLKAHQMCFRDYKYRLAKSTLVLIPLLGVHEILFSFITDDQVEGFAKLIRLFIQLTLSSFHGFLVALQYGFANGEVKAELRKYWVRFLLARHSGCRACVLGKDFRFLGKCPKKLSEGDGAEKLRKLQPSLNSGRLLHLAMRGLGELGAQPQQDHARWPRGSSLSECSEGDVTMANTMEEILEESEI


Tests used:
C57BL/6J mice [1] = experiment: Acute food intake in C57BL/6J mice; assay type: in vivo; conditions: for Total food intake (g/animal): Day 0: 0-[…] (lights off), mean ± SEM
Procedure: The C57BL/6J mice arrived 7 days prior to the initiation of the study. During these days, animals were handled daily to accustom them to the experimental paradigm. At Day −1, the mice were randomised according to body weight to participate in one of following drug treatment groups (n=6-8 in each group): Group 1: vehicle. […] Group 3-5: SEQ ID NO 3; 3.0; 1.0; 0.3 mg/kg. Group 6-8: SEQ ID NO 4; 3.0; 1.0; 0.3 mg/kg. Group 9-11: SEQ ID NO 5; 3.0; 1.0; 0.3 mg/kg. Group 12-14: SEQ ID NO 6; 3.0; 1.0; 0.3 mg/kg. Group 15-17: SEQ ID NO 7; 3.0; 1.0; 0.3 mg/kg. Three days prior to initiation of dosing, all animals were handled daily and accustomed to the experimental conditions by subcutaneous mock injections (i.e. nipping the skin of the back). Baseline food intake was monitored four days prior to the study. Mice were randomized according to body weight on Day −1. Animals were subjected to two separate injections. First acute dose was administered prior to lights out at Day 0 and food intake was monitored 24 hours post dosing. On Day 3, mice were re-randomised into new treatment groups and dosed prior to lights out. Food intake was monitored 24 hours post dosing. Body weight was measured daily from Day −5 and throughout the study. The study was terminated on Day 5. […] Dosing took place prior to lights out in the afternoon (between 13.30 and 14.00). Doses were administered subcutaneously (dose volume 5 ml/kg). Food intake data was collected using the HM-2 system, an online computerized feeding system using digital weighing cells. Food intake and body weight were measured from Day −7 and throughout the study. […]

C57BL/6J mice [2] = experiment: GLP1R-GLP2R dual agonist compound study: cumulative food intake; assay type: in vivo
Source text: Forty (40, n=10, 4 groups) male C57BL/6J mice obtained from Taconic, Denmark, were used. At the time of the experiment, the mice had reached an age of 9-10 weeks. The mice were acclimatized for one week in their new environment and offered regular chow diet (Altromin 1324, Brogaarden A/S, Denmark) and domestic quality tap water. Animals were housed two per cage during the study, in a light-, temperature-, and humidity-controlled room (12-hour light: 12-hour dark cycle, lights on/off at 4 AM/4 PM hour; 22±1° C.; 50±10% relative humidity). […] Animals were uniquely identified with implantable microchips (Pet ID Microchip, E-vet) in all mice upon arrival. Animals were identified using the WS-2 weight station (MBrose ApS, Faaborg, Denmark) connected to a laptop running the HM02Lab software (Ellegaard Systems, Faaborg, Denmark). The HM02Lab software matches the body weight with ID and calculates the dose directly based on the body weight. All mice were handled for 3 days prior to the experiment to acclimatize the animals to handling and injections.

C57BL/6J mice [3] = experiment: GLP1R-GLP2R dual agonist compound study: oral glucose tolerance test; assay type: in vivo
Procedure: On day 7, an oral glucose tolerance test (OGTT) was performed. Animals were mildly fasted as all food was removed 4 hours prior to the oral glucose load. Vehicle (SC) and compounds were administered subcutaneously (SC) 2 hours prior to the OGTT. At t=0 mice received an oral glucose load (2 g/kg; 4 ml/kg; 500 mg/ml, Fresenius Kabi, Sweden). Glucose was given as gavage via a gastrically-placed tube connected to a syringe ensuring accurate dosing. Blood glucose was measured from tail vein blood before glucose (at t=−120 and 0 min, baseline) and after glucose administration at t=15, 30, 60 and 120 min. Blood samples (tail vein) was collected into 10 μl heparinized glass capillary tubes and immediately suspended in buffer (0.5 ml of glucose/lactate system solution (EKF-diagnostics, Germany) and analyzed for glucose on the test day using a BIOSEN c-Line glucose meter (EKF-diagnostics, Germany) according to manufacturer's instructions. Results from the OGTT are listed below in Table 11.

C57BL/6J mice [4] = experiment: GLP1R-GLP2R dual agonist compound study: gut wet weight; assay type: in vivo
Source text: On study day 8, the mice were terminated and the GI tract was removed for determination of the gut wet weight. The gut wet weight results are listed below in Table 12.

human GLP-1 receptor = human GLP-1 receptor (human, UniProt P43220 24-463, limits assumed); experiment: cell-based or functional assay
human GLP-2 receptor = molecular target: T1, human GLP-2 receptor; experiment: cell-based or functional assay

Row | Molecule | GLP-1R, EC50 (human GLP-1 receptor) [nM] | GLP-2R, EC50 (human GLP-2 receptor) [nM] | Total food intake (g/animal) (C57BL/6J mice [1]; single SC dose 0.3 mg/kg) | Total food intake (g/animal) (C57BL/6J mice [1]; single SC dose 1 mg/kg) | Total food intake (g/animal) (C57BL/6J mice [1]; single SC dose 3 mg/kg) | other results
1 | R^1-HGDGSFTSELSTYLDALAARDFINWLIQTKR^2 [SEQ ID NO 4] |  |  | 0.93 ± 0.06 | 0.79 ± 0.15 | 0.25 ± 0.08 | 
2 | R^1-HGDGSFTDELSTYLDALAARDFIAWLIQTKR^2 [SEQ ID NO 3] |  |  | 0.76 ± 0.37 | 0.66 ± 0.15 | 0.30 ± 0.08 | Cumulative food intake (C57BL/6J mice [2]; Day 0-7, 3.0 mg/kg BID SC, mean ± S.E.M.): 26.03 ± 2.49 g; cumulative food intake compared to vehicle and teduglutide (C57BL/6J mice [2]; dosed twice daily for 7 days): considerably reduced cumulative food intake; Oral glucose tolerance test AUC, 0-120 min (C57BL/6J mice [3]; Day 7, 3.0 mg/kg BID SC, glucose 2 g/kg oral, mean ± S.E.M.): 503 ± 97 mmol·min/L; blood glucose compared to vehicle and teduglutide (C57BL/6J mice [3]; dosed twice daily for 7 days): significantly reduced fasting blood glucose; Gut wet weight (C57BL/6J mice [4]; Day 8, 3.0 mg/kg BID SC, mean ± S.E.M.): 3.3 ± 0.2 g; gut wet weight compared to vehicle and teduglutide (C57BL/6J mice [4]; dosed twice daily for 8 days): significantly increased the gut wet weight
3 | R^1-HGDGSFTDELSTYLDNLAARDFIAWLIQTKITDR^2 [SEQ ID NO 5] |  |  | 0.69 ± 0.19 | 0.83 ± 0.18 | 0.26 ± 0.08 | 
4 | HGDGSFTSELSTYLDNLAARDFINWLIQTKITD-NH2 (C-terminus assumed) [SEQ ID NO 7, R^1-HGDGSFTSELSTYLDNLAARDFINWLIQTKITDR^2] |  |  | 1.05 ± 0.41 | 0.47 ± 0.08 | 0.28 ± 0.12 | food intake after […] compared to vehicle (C57BL/6J mice [1]; single dose 1-3 mg/kg): significantly reduced food intake
5 | HGDGSFTSELK([γGlu-Palmitoyl])TYLDALAARDFIAWLIQTKITD [SEQ ID NO 21] | > 10 | 4.25 |  |  |  | 
6 | HGDGSFK([γGlu-Palmitoyl])SELSTYLDALAARDFIAWLIQTKITD [SEQ ID NO 19] | > 10 | > 100 |  |  |  | 

Second part, led by results:

Row | GLP-1R, EC50 (human GLP-1 receptor) [nM] | GLP-2R, EC50 (human GLP-2 receptor) [nM] | Molecule | Total food intake (g/animal) (C57BL/6J mice [1]; single SC dose 0.3 mg/kg) | Total food intake (g/animal) (C57BL/6J mice [1]; single SC dose 1 mg/kg) | Total food intake (g/animal) (C57BL/6J mice [1]; single SC dose 3 mg/kg) | other results
7 | 0.319 | 1.93 | HGDGSFTSELSTYLDAK([γGlu-Palmitoyl])AARDFIAWLIQTKITD [SEQ ID NO 25] |  |  |  | 
8 | 0.338 | 5.6 | HGDGSFTSELSTYLDK([γGlu-Palmitoyl])LAARDFIAWLIQTKITD [SEQ ID NO 24] |  |  |  | 
9 | 0.169 | 1.06 | HGDGSFTSELSTYK([γGlu-Palmitoyl])DALAARDFIAWLIQTKITD [SEQ ID NO 23] |  |  |  | 
10 | 0.658 | > 100 | HGDGSFTSELSTYLDALAAK([γGlu-Palmitoyl])DFIAWLIQTKITD [SEQ ID NO 26] |  |  |  | 
11 | 0.543 | 6.61 | HGDGSFTSELSK([γGlu-Palmitoyl])YLDALAARDFIAWLIQTKITD [SEQ ID NO 22] |  |  |  | 
